Consider seven compounds from article PMC3031881, “Amyloid precursor protein selective gamma-secretase inhibitors for treatment of Alzheimer's disease” (Alzheimer's Research & Therapy, 2010).

Data set [1] concerns brain Aβx-40 in FVB mice. Nature of the data set: Acute reduction of brain Aβx-40 in wild-type FVB mice. The data set is classed as in vivo, mouse. As to the method:
(§1) Water and food were available ad libitum. […] Control animals were dosed with vehicle.
Statistical significance was determined by ANOVA.

Data set [2] deals with thymic Hes-1 mRNA (Notch signaling). Nature of the data set: Thymic Hes-1 mRNA after single dose in FVB mice (TaqMan RT-PCR). The class given is in vivo, mouse. As to conditions: three hours. On the procedure: as §1
Background: In qPCR the cycle at which signal appears reflects the starting amount.

Data set [3] relates to FVB mice (Math1 mRNA, body and organ weight, neutrophils). The conditions noted are these: seven days b.i.d.; LY411575 5 mg/kg/dose; ELN475516 up to 1,000 mg/kg/dose.
The test system of data set [4] is Aβ production in SNC cells (CHO APPSw). In words: SNC dual cell assay, secreted Aβ1-x ELISA. As to conditions: Cricetulus griseus; for EC50: read-out: SNC Aβ EC50; for IC50: read-out: IC50 for inhibition of Aβ production in the SNC assay. (In an ELISA, binding on a coated surface is turned into a signal by an enzyme label.)
Data set [5] deals with brain Aβx-40 in FVB mice. In words: Seven-day b.i.d. repeat dose study, brain Aβx-40. As to conditions: seven days; for reduction of brain Aβ: three hours post last dose.
Data set [6] has as its system Notch signaling in SNC cells (rat NotchΔE, CBF-Luciferase). In words: SNC dual cell assay, Notch signaling luciferase reporter. The conditions noted are these: for EC50: Rattus norvegicus, read-out: SNC Notch Signaling EC50; for APP selectivity (cellular, SNC assay): text of Discussion. In general terms: Reporter assays use an easily measured gene product as a stand-in for the process of interest.

In data set [7] the test system is duodenum and ileum of FVB mice. Nature of the data set: Seven-day b.i.d. repeat dose study, small intestine histopathology (goblet cell hyperplasia). As to conditions: for goblet cells in ileum sections / goblet cell hyperplasia: seven days b.i.d.; for goblet cells in ileum sections: H&E and PAS stained sections; for goblet cell hyperplasia: LY411575 5 mg/kg duodenum and ileum, ELN475516 any dose, duodenum.

The test system of data set [8] is brain Aβ in PDAPP mice. Nature of the data set: Acute reduction of brain Aβ in PDAPP mice. The class given is in vivo, mouse. As to conditions: for reduction of brain Aβ1-x: 3 h. On the procedure:
as §1
Figure 4 Acute reduction of brain Aβ by ELN318463 in PDAPP (a) and FVB mice (b). The mice were dosed orally with vehicle, or ELN318463 at 30 mg/kg or 100 mg/kg and sacrificed 3 h post treatment. Brain Aβ1-x in PDAPP (a), or Aβx-40 in FVB (b) was quantified by ELISA following extraction in guanidine buffer as described in methods. ** denotes P < 0.01, *** denotes P < 0.001 by Mann-Whitney in A, and two-tailed Students t-test in (b). TEXT PRINTED IN THE PICTURE: (A) no label printed: Aβ reduction: 37% (30[mpk]); Aβ reduction: 48% (100[mpk]) | (B) no label printed: Aβ reduction: 18% (30[mpk]); Aβ reduction: 18% (100[mpk])

Data set [9] is described as follows: Metabolism (N-glucuronidation). As to conditions: precluded longer-term studies in mice (or other models).
A short description of data set [10]: Compound levels in plasma and brain by LC-MS-MS. As to conditions: for concentration at 3 h: mouse.
Data set [11] deals with T1, gamma-secretase complex (from CHO S1 cells) (Homo sapiens, UniProt P49768).
T1 construct: expressed in transfected cells; host or cells: CHO S1 cells
Nature of the data set: Competitive displacement of biotinylated active site isostere (PS1/Nicastrin Western blot). The class given is binding.

The test system of data set [12] is APP metabolites in HEK293 cells stably expressing APPsw. In words: APP metabolites by Western blot in inhibitor treated cells. The conditions noted are these: approximately 1 X and 10 X ED50, overnight, cell extracts.
Data set [13] has as its system PDAPP mouse. On the set-up: method as in earlier work. As to conditions: three and six months, doses which affected AD pathology; cited from earlier work.
Data set [14] is described as follows: Oral bioavailability in rat. The conditions noted are these: in vivo, read-out: oral bioavailability F.
The subject of data set [15] is brain Aβ in Tg2576 mice. Also on record: method as in PMID 19671883. The conditions noted are these: cited from earlier work.
[16] abbreviates: 5 mg/kg/dose b.i.d., 7 days, goblet cell hyperplasia in affected animals.
Setting [17] is: single oral dose 30 mg/kg, three hours post dose.
The mark [18] stands for this setting: 15 mg/kg/dose b.i.d., 7 days, N = 5.
The mark [19] stands for this setting: 30 mg/kg/dose b.i.d., 7 days, N = 5.
[20] abbreviates: 100 mg/kg/dose b.i.d., 7 days, N = 5.
[21] abbreviates: 300 mg/kg/dose b.i.d., 7 days, N = 5.
Where [22] appears, read: 600 mg/kg/dose b.i.d., 7 days, N = 5.
[23] abbreviates: 1,000 mg/kg/dose b.i.d., 7 days, N = 5.
The mark [24] stands for this setting: ileum, among all mice of the ELN475516 treated groups.

Marks after values point to notes of the source that are not given here.

On to `C[C@H](NC(=O)[C@@H](O)c1cc(F)cc(F)c1)C(=O)N[C@@H]1C(=O)N(C)c2ccccc2-c2ccccc21` [LY411575, (S)-2-((S)-2-(3,5-Difluorophenyl)-2-hydroxyacetamido)-N-((S)-5-methyl-6-oxo-6,7-dihydro-5H-dibenzo(b,d)azepin-7-yl)propanamide, reference compound], for which the “reduction of brain Aβx-40” value in [1] (single oral dose 10 mg/kg, three hours post dose) was 74%. Further, in data set [2] (single oral dose 10 mg/kg), the “reduction of thymic Hes-1 mRNA” value is listed as 60%. Further, in [3], the “Math1 mRNA levels in duodenum and ileum” value is on record as “robust elevation”. In addition, the EC50 (usually the concentration at which the effect is half-maximal) in data set [4] amounted to 0.116 ± 0.011 nM. Further, the “reduction of brain Aβ” value in [5] (5 mg/kg b.i.d. oral) is 83%. The EC50 in [6] stood at 1.8 ± 1.35 nM. Also, in data set [7] (5 mg/kg/dose b.i.d., 7 days, N = 5), the “Ileum # animals affected” value came out at 5. In addition, the “Duodenum # animals affected” value in [7] (5 mg/kg/dose b.i.d., 7 days, N = 5 (tissue lost from one animal)) was 4*. Also, in data set [7] (setting [16]), the “Duodenum Mean severity score” value was 2 and the “Ileum Mean severity score” value was 3. Moreover, in [7], the “goblet cells in ileum sections” value was “moderate increase in goblet cells” and the goblet cell hyperplasia entry is given as “readily apparent”.

Turning to `O=S(=O)(c1ccc(Cl)cc1)N1C2CCCC1c1cn[nH]c1C2` (centres unmarked) [ELN475516, 10-((4-Chlorophenyl)sulfonyl)-4,5,6,7,8,9-hexahydro-1H-4,8-epiminocycloocta(c)pyrazole], the “reduction of cortical Aβ1-x” value in [8] (single oral dose 10 mg/kg, three hours) came to 31%. In addition, in data set [8] (single oral dose 30 mg/kg), the “reduction of brain Aβ1-x” value is 45%. Moreover, in [1] (all treatment groups (30, 100, 300 mg/kg)), the “brain Aβ levels by 24 hours post dose” value was “returning to baseline”. Moreover, the “reduction of brain Aβ” value in data set [1] (single oral dose 30 mg/kg, 10 hours post dose) amounted to 28%; in data set [1] (single oral dose 100 mg/kg, 10 hours post dose), 33%; in [1] (single oral dose 100 mg/kg, 14 hours post dose), 14%; in [1] (single oral dose 300 mg/kg, 10 hours post dose), 56%; in [1] (single oral dose 300 mg/kg, 14 hours post dose), 29%; in data set [5] (15 mg/kg/dose b.i.d. oral) it was 33%. In addition, the “reduction of brain Aβx-40” value is reported as 40% in [1] (setting [17]) and 71% in [1] (single oral dose 300 mg/kg, three hours post dose). In addition, the “time of maximal reduction of brain Aβ post dose” value in data set [1] (single oral dose 30, 100, 300 mg/kg) was “three”. In data set [2] (single oral dose 300 mg/kg (highest dose tested)), the “thymic Hes-1 mRNA” value was “statistically significant reduction”. The metabolic liability result in [9] is “Limiting N-glucuronidation”. The “Math1 mRNA levels in duodenum and ileum” value in data set [3] was “No effects”. For the same compound, the EC50 was 8.73 ± 3.96 nM in data set [4] and 719 ± 225 nM in data set [6]. The “terminal plasma compound levels” value in data set [10] (acute single dose study, highest dose tested (300 mg/kg), FVB mice) turned out to be 12.3 µM. For the same compound, the concentration at 3 h in data set [10] (female, FVB, in vivo, 15 mg/kg) came out at 187 nM; in data set [10] (female, FVB, in vivo, 1000 mg/kg/dose) it was 12300 nM. Also, the “maximal effect, reduction of brain Aβ” value in [5] (>100 mg/kg b.i.d. oral) came out at 74%. Also, the “Duodenum # animals affected” value in data set [7] (setting [18]), in [7] (setting [19]), in data set [7] (setting [20]), in data set [7] (setting [21]), in data set [7] (setting [22]) and in [7] (setting [23]) was 0 each time. The “Ileum # animals affected” value in [7] (setting [18]) was 0; in data set [7] (setting [19]), 4; in [7] (setting [20]), 2; in data set [7] (setting [21]), 0; in [7] (setting [22]), 2; in data set [7] (setting [23]), 1. Moreover, the “Ileum Mean severity score” value worked out at 0.5 in data set [7] (30 mg/kg/dose b.i.d., 7 days, affected animals); 1.25 in [7] (100 mg/kg/dose b.i.d., 7 days, affected animals); 0.5 in [7] (600 mg/kg/dose b.i.d., 7 days, affected animals); 0.5 in [7] (1,000 mg/kg/dose b.i.d., 7 days, affected animals). In addition, in data set [7] (setting [24]), the “number of mice with a questionable increase in goblet cells” value was found to be 8. Moreover, in data set [7] (setting [24]), the “number of mice with no increase in goblet cells” value is given as 21. Moreover, the “goblet cells in ileum sections” value in data set [7] is recorded as “no apparent dose-related increase”. Besides, the goblet cell hyperplasia result in data set [7] is given as “not observed”.

In the case of `NC(=O)[C@@H](CCC(F)(F)F)N(Cc1ccc(-c2ncon2)cc1F)S(=O)(=O)c1ccc(Cl)cc1` [BMS-708163], the IC50 (commonly the concentration needed to halve the response being measured) in [4] stood at 1.13 nM. The “APP selectivity (cellular, SNC assay)” value in [6] amounted to 57 X.

For the compound `CC(C)C[C@H](NC(=O)[C@H](Cc1ccccc1)C[C@@H](O)[C@H](Cc1ccccc1)NC(=O)OC(C)(C)C)C(=O)N[C@@H](Cc1ccccc1)C(N)=O` [L-685,458, tert-Butyl (2S,3R,5R)-6-((S)-1-((S)-1-amino-1-oxo-3-phenylpropan-2-ylamino)-4-methyl-1-oxopentan-2-ylamino)-5-benzyl-3-hydroxy-6-oxo-1-phenylhexan-2-ylcarbamate], the “captured gamma-secretase complex competed” value in data set [11] (co-incubation with 10 μM, 50 nM biotinylated probe, preliminary experiments) is greater than 90%. In data set [11] (no added substrate), the “concentration for 50% displacement of biotinylated active site isostere probe, above IC50 in the gammaAPP assay” value is “approximately three”. In addition, the EC50 in [4] worked out at 13.2 ± 4.5 nM; in [6], 184 ± 145 nM. For the same compound, the “effect on α-CTF and β-CTF of APP” value in data set [12] was “stabilize both α-CTF and β-CTF in a dose-dependent manner”.

With `O=S(=O)(c1ccc(C(F)(F)F)cc1)N1c2cc(F)c(F)cc2-c2[nH]ncc2[C@H]1C1CC1` [ELND006], the “tolerability in chronic study” value in data set [13] is listed as “well tolerated”.

`O=C1NCCCC[C@H]1N(Cc1ccc(Br)cc1)S(=O)(=O)c1ccc(Cl)cc1` [ELN318463, N-(4-Bromobenzyl)-4-chloro-N-((3R)-2-oxoazepan-3-yl)benzenesulfonamide]: the “displacement of biotinylated active site probe” value in data set [11] (in the absence of substrate) is on record as “No displacement”. In addition, the “reduction of Aβx-40” value was 20% in data set [8] (30 mg/kg oral) and 25% in data set [8] (100 mg/kg oral). The “reduction of brain Aβ1-x” value in data set [8] (single oral dose 30 mg/kg) worked out at 37%; in data set [8] (single oral dose 100 mg/kg) it was 48%. The “reduction of brain Aβx-40” value was determined as 18% in data set [1] (setting [17]) and 18% in [1] (single oral dose 100 mg/kg, 3 h post dose). Further, in data set [14], the bioavailability (commonly dose-corrected exposure relative to a reference, in per cent) came to 30%. Also, the EC50 in data set [4] was 23.4 ± 8.6 nM; in [6], 2820 nM. Further, the concentration at 3 h in data set [10] (PDAPP, brain, po, 30 mg/kg) came to 690 nM; in [10] (PDAPP, brain, po, 100 mg/kg), 1870 nM; in [10] (female, FVB/N, brain, po, 30 mg/kg), 754 nM; in data set [10] (female, FVB/N, brain, po, 100 mg/kg), 2700 nM. Further, the “Cellular Selectivity (APP/Notch)” value in [6] (ratio of cellular Notch signaling and Aβ EC50) came out at 120.

Take `O=S(=O)(N[C@H](CO)C(C(F)(F)F)C(F)(F)F)c1ccc(Cl)s1` [GSI-953]: the “reduction of brain Aβx-40” value in [1] (setting [17]) worked out at 33%. The “dose producing a similar magnitude effect (33% brain Aβ reduction)” value in data set [15] is listed as 5 mg/kg. In data set [4], the IC50 was 8 nM. Besides, the “APP selectivity (cellular, SNC assay)” value in data set [6] was determined as 45 X.
